Values of other authors in publication PMC8583936, “Machine Learning Assisted Approach for Finding Novel High Activity Agonists of Human Ectopic Olfactory Receptors” (International Journal of Molecular Sciences, 2021).
Read-outs that look alike come from different tables or passages of the source.

Columns and labels:
[1] = target: T1, OR1A1 (Homo sapiens, UniProt Q9P1Q5); conditions: cited from earlier work
T1 sequence (Q9P1Q5 1-309): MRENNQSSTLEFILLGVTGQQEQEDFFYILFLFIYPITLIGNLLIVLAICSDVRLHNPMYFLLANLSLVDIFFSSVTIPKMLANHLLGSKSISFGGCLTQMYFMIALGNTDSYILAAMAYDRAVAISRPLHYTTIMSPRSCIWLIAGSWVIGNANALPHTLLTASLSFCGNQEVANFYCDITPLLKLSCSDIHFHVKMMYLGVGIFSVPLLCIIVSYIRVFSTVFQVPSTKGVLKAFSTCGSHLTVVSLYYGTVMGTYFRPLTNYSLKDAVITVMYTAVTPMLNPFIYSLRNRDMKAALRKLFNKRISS

[2] = target: T2, OR2W1 (Homo sapiens, UniProt Q9Y3N9); conditions: cited from earlier work
T2 sequence (Q9Y3N9 1-320): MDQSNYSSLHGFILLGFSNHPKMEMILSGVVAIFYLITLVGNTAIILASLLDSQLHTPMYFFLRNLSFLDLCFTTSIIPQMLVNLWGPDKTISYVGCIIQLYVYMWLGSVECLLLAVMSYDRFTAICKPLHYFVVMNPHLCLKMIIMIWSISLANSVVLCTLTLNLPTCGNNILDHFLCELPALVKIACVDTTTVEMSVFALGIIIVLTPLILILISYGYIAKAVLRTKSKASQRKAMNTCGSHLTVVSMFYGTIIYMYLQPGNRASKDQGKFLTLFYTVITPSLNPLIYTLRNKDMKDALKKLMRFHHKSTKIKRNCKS

[3] = Table S1, ref Supplement references [1]-[9] as printed after each odorant name
[4] = Table S2, ref Supplement references [2]-[12] as printed after each odorant name

## COC(=O)C(C)C [Methyl isobutyrate]
[1]; [3]
  Class (agonist / non-agonist / conflicting info.) for OR1A1: Non-agonist
[2]; [4]
  Class (agonist / non-agonist / antagonist / conflicting info.) for OR2W1: Non-agonist

## CCCSSSC [Methyl propyl trisulfide]
[1]; [3]
  Class (agonist / non-agonist / conflicting info.) for OR1A1: Non-agonist
[2]; [4]
  Class (agonist / non-agonist / antagonist / conflicting info.) for OR2W1: Non-agonist

## COC(=O)c1ccccc1O [Methyl salicylate]
[1]; [3]
  Class (agonist / non-agonist / conflicting info.) for OR1A1: Conflicting info.
[2]; [4]
  Class (agonist / non-agonist / antagonist / conflicting info.) for OR2W1: Agonist

## C=CC(=C)CCC=C(C)C [Myrcene]
[1]; [3]
  Class (agonist / non-agonist / conflicting info.) for OR1A1: Non-agonist
[2]; [4]
  Class (agonist / non-agonist / antagonist / conflicting info.) for OR2W1: Non-agonist

## CCCCCOC(C)=O [N-amyl acetate]
[1]; [3]
  Class (agonist / non-agonist / conflicting info.) for OR1A1: Non-agonist
[2]; [4]
  Class (agonist / non-agonist / antagonist / conflicting info.) for OR2W1: Agonist

## O=C(O)CCCCCCCC(=O)O [Nonanedioic acid]
[1]; [3]
  Class (agonist / non-agonist / conflicting info.) for OR1A1: Non-agonist
[2]; [4]
  Class (agonist / non-agonist / antagonist / conflicting info.) for OR2W1: Non-agonist

## CCCCCCCCCS [Nonanethiol]
[1]; [3]
  Class (agonist / non-agonist / conflicting info.) for OR1A1: Agonist
[2]; [4]
  Class (agonist / non-agonist / antagonist / conflicting info.) for OR2W1: Agonist

## CCCCCCCCC(=O)O [Nonanoic acid]
[1]
  Class (agonist / non-agonist / conflicting info.) for OR1A1: Conflicting info.
[2]
  Class (agonist / non-agonist / antagonist / conflicting info.) for OR2W1: Agonist

## CCCCCCCCCO [Nonanol]
[1]; [3]
  Class (agonist / non-agonist / conflicting info.) for OR1A1: Non-agonist
[2]; [4]
  Class (agonist / non-agonist / antagonist / conflicting info.) for OR2W1: Agonist

## CCCCCCCC=O [Octanal]
[1]; [3]
  Class (agonist / non-agonist / conflicting info.) for OR1A1: Conflicting info.
[2]; [4]
  Class (agonist / non-agonist / antagonist / conflicting info.) for OR2W1: Agonist

## CCCCCCCCS [Octanethiol]
[1]
  Class (agonist / non-agonist / conflicting info.) for OR1A1: Conflicting info.
[2]
  Class (agonist / non-agonist / antagonist / conflicting info.) for OR2W1: Agonist

## CCCCCCCC(=O)O [Octanoic acid]
[1]
  Class (agonist / non-agonist / conflicting info.) for OR1A1: Non-agonist
[2]
  Class (agonist / non-agonist / antagonist / conflicting info.) for OR2W1: Conflicting info.

## CCCCCCCCO [Octanol]
[1]; [3]
  Class (agonist / non-agonist / conflicting info.) for OR1A1: Conflicting info.
[2]; [4]
  Class (agonist / non-agonist / antagonist / conflicting info.) for OR2W1: Agonist

## CCCCCCCCOC(=O)CCCCCCC [Octyl octanoate]
[1]; [3]
  Class (agonist / non-agonist / conflicting info.) for OR1A1: Conflicting info.
[2]; [4]
  Class (agonist / non-agonist / antagonist / conflicting info.) for OR2W1: Antagonist

## C=C(C)c1ccc(C)cc1 [P,α-Dimethylstyrene]
[1]; [3]
  Class (agonist / non-agonist / conflicting info.) for OR1A1: Non-agonist
[2]; [4]
  Class (agonist / non-agonist / antagonist / conflicting info.) for OR2W1: Agonist

## O=C(O)C=Cc1ccc(O)cc1 [P-Coumaric acid]
[1]; [3]
  Class (agonist / non-agonist / conflicting info.) for OR1A1: Non-agonist
[2]; [4]
  Class (agonist / non-agonist / antagonist / conflicting info.) for OR2W1: Non-agonist

## CCCCC=O [Pentanal]
[1]; [3]
  Class (agonist / non-agonist / conflicting info.) for OR1A1: Non-agonist
[2]; [4]
  Class (agonist / non-agonist / antagonist / conflicting info.) for OR2W1: Non-agonist

## CCCCCO [Pentanol]
[1]; [3]
  Class (agonist / non-agonist / conflicting info.) for OR1A1: Conflicting info.
[2]; [4]
  Class (agonist / non-agonist / antagonist / conflicting info.) for OR2W1: Conflicting info.

## O=CCc1ccccc1 [Phenyl acetaldehyde]
[1]; [3]
  Class (agonist / non-agonist / conflicting info.) for OR1A1: Non-agonist
[2]; [4]
  Class (agonist / non-agonist / antagonist / conflicting info.) for OR2W1: Non-agonist

## CC(=O)Oc1ccccc1 [Phenyl acetate]
[1]; [3]
  Class (agonist / non-agonist / conflicting info.) for OR1A1: Non-agonist
[2]; [4]
  Class (agonist / non-agonist / antagonist / conflicting info.) for OR2W1: Non-agonist

## CC(=O)OCC=C(C)C [Prenyl acetate]
[1]; [3]
  Class (agonist / non-agonist / conflicting info.) for OR1A1: Non-agonist
[2]; [4]
  Class (agonist / non-agonist / antagonist / conflicting info.) for OR2W1: Agonist

## CCC=O [Propanal]
[1]; [3]
  Class (agonist / non-agonist / conflicting info.) for OR1A1: Conflicting info.
[2]; [4]
  Class (agonist / non-agonist / antagonist / conflicting info.) for OR2W1: Conflicting info.

## CCC(=O)O [Propionic acid]
[1]
  Class (agonist / non-agonist / conflicting info.) for OR1A1: Conflicting info.
[2]
  Class (agonist / non-agonist / antagonist / conflicting info.) for OR2W1: Non-agonist

## CCCOC(=O)CCC [Propyl butyrate]
[1]
  Class (agonist / non-agonist / conflicting info.) for OR1A1: Non-agonist
[2]
  Class (agonist / non-agonist / antagonist / conflicting info.) for OR2W1: Non-agonist

## CCCSSCCC [Propyl disulfide]
[1]; [3]
  Class (agonist / non-agonist / conflicting info.) for OR1A1: Non-agonist
[2]; [4]
  Class (agonist / non-agonist / antagonist / conflicting info.) for OR2W1: Non-agonist

## c1ccc2ncccc2c1 [Quinoline]
[1]; [3]
  Class (agonist / non-agonist / conflicting info.) for OR1A1: Agonist
[2]; [4]
  Class (agonist / non-agonist / antagonist / conflicting info.) for OR2W1: Non-agonist

## C=C(C)[C@H]1CC=C(C)CC1 [R-limonene]
[1]; [3]
  Class (agonist / non-agonist / conflicting info.) for OR1A1: Agonist
[1]; Table S1, ref Supplement references [1]-[9] as printed after each odorant name, listed as (R)-limonene
  Class (agonist / non-agonist / conflicting info.) for OR1A1: agonists
[2]; [4]
  Class (agonist / non-agonist / antagonist / conflicting info.) for OR2W1: Agonist

## CC(C)=CC1CC(C)CCO1 (stereo not drawn) [Rose oxide]
[1]; [3]
  Class (agonist / non-agonist / conflicting info.) for OR1A1: Non-agonist
[2]; [4]
  Class (agonist / non-agonist / antagonist / conflicting info.) for OR2W1: Non-agonist
